# Source: patent US9486506B2 (Novo Nordisk A/S, priority 2011, dated 2016)
# Numbered stars: 1 amine (or outer) side, 2 acyl side, 3 side chain; on linkers, the order of the positions; unused ones are H or OH. Side chains are listed from the residue outwards. Peptide text beside a SMILES is read from it. * marks the point of attachment. C18 diacid = O=C(O)CCCCCCCCCCCCCCCCC(=O)*; γGlu = O=C(O)[C@H](CCC(=O)[*:2])N[*:1]; AEEA = NCCOCCOCC(=O)O
# Key:
# [1] = Assay (X) Chemical stability assessment by RP-UPLC; assay type: physicochemical; conditions: pH 8.15, 14 days at 37° C. vs 5° C., 333 μM
# [2] = biological target: T1, glucagon receptor (Homo sapiens, UniProt P47871); experiment: Assay (I) Glucagon activity (cAMP biosensor, FLIPR); assay type: cell-based
# T1 construct: expressed in transfected cells
# T1 sequence (P47871 26-477): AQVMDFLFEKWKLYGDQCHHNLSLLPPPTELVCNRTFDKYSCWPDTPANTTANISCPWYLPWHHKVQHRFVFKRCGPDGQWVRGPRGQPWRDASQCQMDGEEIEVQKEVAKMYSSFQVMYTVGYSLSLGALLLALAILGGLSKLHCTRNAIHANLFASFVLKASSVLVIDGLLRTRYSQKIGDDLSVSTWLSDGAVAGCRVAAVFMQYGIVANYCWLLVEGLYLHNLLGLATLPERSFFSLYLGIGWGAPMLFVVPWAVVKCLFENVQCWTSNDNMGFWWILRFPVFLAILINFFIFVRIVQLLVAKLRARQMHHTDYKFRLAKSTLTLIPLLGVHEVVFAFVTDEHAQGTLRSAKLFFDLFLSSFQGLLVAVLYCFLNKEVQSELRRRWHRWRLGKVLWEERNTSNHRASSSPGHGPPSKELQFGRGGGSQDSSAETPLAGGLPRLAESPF
SMILES,Chemical stability [Purity loss/14 days 37 C.] [1],EC50 [2]
"CC(C)C[C@H](NC(=O)[C@H](Cc1ccc(O)cc1)NC(=O)[C@H](CCCNC(=N)N)NC(=O)[C@H](CO)NC(=O)[C@H](Cc1ccc(O)cc1)NC(=O)[C@H](CC(=O)O)NC(=O)[C@H](CO)NC(=O)[C@@H](NC(=O)[C@H](Cc1ccccc1)NC(=O)[C@@H](NC(=O)CNC(=O)[C@H](CCC(N)=O)NC(=O)[C@H](CO)NC(=O)[C@@H](N)Cc1c[nH]cn1)[C@@H](C)O)[C@@H](C)O)C(=O)N[C@@H](CC(=O)O)C(=O)N[C@@H](CCC(=O)O)C(=O)N[C@@H](CCCNC(=N)N)C(=O)N[C@@H](CCCNC(=N)N)C(=O)N[C@@H](C)C(=O)N[C@@H](CCC(N)=O)C(=O)N[C@@H](CC(=O)O)C(=O)N[C@@H](Cc1ccccc1)C(=O)N[C@H](C(=O)N[C@@H](CCCCNC(=O)CC[C@H](NC(=O)CC[C@H](NC(=O)COCCOCCNC(=O)COCCOCCNC(=O)CC[C@H](NC(=O)CCCCCCCCCCCCCCCCC(=O)O)C(=O)O)C(=O)O)C(=O)O)C(=O)N[C@@H](Cc1c[nH]c2ccccc12)C(=O)N[C@@H](CC(C)C)C(=O)N[C@@H](CC(C)C)C(=O)N[C@@H](CO)C(=O)N[C@H](C(=O)O)[C@@H](C)O)C(C)C [Example 42, N^ε24-[(4S)-4-carboxy-4-[[(4S)-4-carboxy-4-[[2-[2-[2-[[2-[2-[2-[[(4S)-4-carboxy-4-(17-carboxyheptadecanoylamino)butanoyl]amino]ethoxy]ethoxy]acetyl]amino]ethoxy]ethoxy]acetyl]amino]butanoyl]amino]butanoyl]-[Arg12,Glu16,Lys24,Leu27,Ser28]-Glucagon] (H-HSQGTFTSDYSRYLDERRAQDFVK([γGlu-γGlu-AEEA-AEEA-γGlu-C18 diacid])WLLST-OH)",7.2%,0.153 nM
"CC(C)C[C@H](NC(=O)[C@H](Cc1ccc(O)cc1)NC(=O)[C@H](CCCCN)NC(=O)[C@H](CO)NC(=O)[C@H](Cc1ccc(O)cc1)NC(=O)[C@H](CC(=O)O)NC(=O)[C@H](CO)NC(=O)[C@@H](NC(=O)[C@H](Cc1ccccc1)NC(=O)[C@@H](NC(=O)CNC(=O)[C@H](CCC(N)=O)NC(=O)[C@H](CO)NC(=O)[C@@H](N)Cc1c[nH]cn1)[C@@H](C)O)[C@@H](C)O)C(=O)N[C@@H](CC(=O)O)C(=O)N[C@@H](C)C(=O)N[C@@H](CCCNC(=N)N)C(=O)N[C@@H](CCCNC(=N)N)C(=O)N[C@@H](C)C(=O)N[C@@H](CCC(N)=O)C(=O)N[C@@H](CC(=O)O)C(=O)N[C@@H](Cc1ccccc1)C(=O)N[C@H](C(=O)N[C@@H](CCCCNC(=O)CC[C@H](NC(=O)CC[C@H](NC(=O)COCCOCCNC(=O)COCCOCCNC(=O)CC[C@H](NC(=O)CCCCCCCCCCCCCCCCC(=O)O)C(=O)O)C(=O)O)C(=O)O)C(=O)N[C@@H](Cc1c[nH]c2ccccc12)C(=O)N[C@@H](CC(C)C)C(=O)N[C@@H](CC(C)C)C(=O)N[C@@H](CCC(N)=O)C(=O)N[C@H](C(=O)O)[C@@H](C)O)C(C)C [Example 56, N^ε24-[(4S)-4-carboxy-4-[[(4S)-4-carboxy-4-[[2-[2-[2-[[2-[2-[2-[[(4S)-4-carboxy-4-(17-carboxyheptadecanoylamino)butanoyl]amino]ethoxy]ethoxy]acetyl]amino]ethoxy]ethoxy]acetyl]amino]butanoyl]amino]butanoyl]-[Ala16,Lys24,Leu27,Gln28]-Glucagon]",8.1%,0.192 nM
"CC(C)C[C@H](NC(=O)[C@H](Cc1ccc(O)cc1)NC(=O)[C@H](CCCCN)NC(=O)[C@H](CO)NC(=O)[C@H](Cc1ccc(O)cc1)NC(=O)[C@H](CC(=O)O)NC(=O)[C@H](CO)NC(=O)[C@@H](NC(=O)[C@H](Cc1ccccc1)NC(=O)[C@@H](NC(=O)CNC(=O)[C@H](CCC(N)=O)NC(=O)[C@H](CO)NC(=O)[C@@H](N)Cc1c[nH]cn1)[C@@H](C)O)[C@@H](C)O)C(=O)N[C@@H](CCC(=O)O)C(=O)N[C@@H](CO)C(=O)N[C@@H](CCCNC(=N)N)C(=O)N[C@@H](CCCNC(=N)N)C(=O)N[C@@H](C)C(=O)N[C@@H](CCC(N)=O)C(=O)N[C@@H](CC(=O)O)C(=O)N[C@@H](Cc1ccccc1)C(=O)N[C@H](C(=O)N[C@@H](CCCCNC(=O)CC[C@H](NC(=O)CC[C@H](NC(=O)COCCOCCNC(=O)CC[C@H](NC(=O)CCCCCCCCCCCCCCCCC(=O)O)C(=O)O)C(=O)O)C(=O)O)C(=O)N[C@@H](Cc1c[nH]c2ccccc12)C(=O)N[C@@H](CC(C)C)C(=O)N[C@@H](CC(C)C)C(=O)N[C@@H](CO)C(=O)N[C@H](C(=O)O)[C@@H](C)O)C(C)C [Example 1, N^ε24-[(4S)-4-carboxy-4-[[(4S)-4-carboxy-4-[[2-[2-[2-[[(4S)-4-carboxy-4-(17-carboxyheptadecanoylamino)butanoyl]amino]ethoxy]ethoxy]acetyl]amino]butanoyl]amino]butanoyl]-[Glu^15,Lys^24,Leu^27,Ser^28]-Glucagon]",7.6%,0.28 nM
"CC(C)C[C@H](NC(=O)[C@H](Cc1ccc(O)cc1)NC(=O)[C@H](CCCNC(=N)N)NC(=O)[C@H](CO)NC(=O)[C@H](Cc1ccc(O)cc1)NC(=O)[C@H](CC(=O)O)NC(=O)[C@H](CO)NC(=O)[C@@H](NC(=O)[C@H](Cc1ccccc1)NC(=O)[C@@H](NC(=O)CNC(=O)[C@H](CCC(N)=O)NC(=O)[C@H](CO)NC(=O)[C@@H](N)Cc1c[nH]cn1)[C@@H](C)O)[C@@H](C)O)C(=O)N[C@@H](CCC(=O)O)C(=O)N[C@@H](CO)C(=O)N[C@@H](CCCNC(=N)N)C(=O)N[C@@H](CCCNC(=N)N)C(=O)N[C@@H](C)C(=O)N[C@@H](CCC(N)=O)C(=O)N[C@@H](CCC(=O)O)C(=O)N[C@@H](Cc1ccccc1)C(=O)N[C@H](C(=O)N[C@@H](CCCCNC(=O)CC[C@H](NC(=O)CC[C@H](NC(=O)COCCOCCNC(=O)COCCOCCNC(=O)CC[C@H](NC(=O)CCCCCCCCCCCCCCCCC(=O)O)C(=O)O)C(=O)O)C(=O)O)C(=O)N[C@@H](Cc1c[nH]c2ccccc12)C(=O)N[C@@H](CC(C)C)C(=O)N[C@@H](CC(C)C)C(=O)N[C@@H](CO)C(=O)N[C@H](C(=O)O)[C@@H](C)O)C(C)C [Example 52, N^ε24-[(4S)-4-carboxy-4-[[(4S)-4-carboxy-4-[[2-[2-[2-[[2-[2-[2-[[(4S)-4-carboxy-4-(17-carboxyheptadecanoylamino)butanoyl]amino]ethoxy]ethoxy]acetyl]amino]ethoxy]ethoxy]acetyl]amino]butanoyl]amino]butanoyl]-[Arg12,Glu15,Glu21,Lys24,Leu27,Ser28]-Glucagon] (H-HSQGTFTSDYSRYLESRRAQEFVK([γGlu-γGlu-AEEA-AEEA-γGlu-C18 diacid])WLLST-OH)",6.3%,0.289 nM
